# According to ChEMBL document CHEMBL1781900, “Synthesis and peptide incorporation of an unnatural amino acid containing activity-based probe for protein tyrosine phosphatases” (Bioorg Med Chem Lett, 2009):
# Positions count from the first letter of the chain named. Calls of active or inactive are those of the source. No cut-off for these calls is given here.
# Experiments:
# [1] = molecular target: T1, Tyrosine-protein phosphatase non-receptor type 1 (Homo sapiens) (UniProt P18031); assay: Binding affinity to purified recombinant PTP1B using streptaive HRP at 20 uM after 1 hr by Western blotting analysis
# T1 sequence (whole entry): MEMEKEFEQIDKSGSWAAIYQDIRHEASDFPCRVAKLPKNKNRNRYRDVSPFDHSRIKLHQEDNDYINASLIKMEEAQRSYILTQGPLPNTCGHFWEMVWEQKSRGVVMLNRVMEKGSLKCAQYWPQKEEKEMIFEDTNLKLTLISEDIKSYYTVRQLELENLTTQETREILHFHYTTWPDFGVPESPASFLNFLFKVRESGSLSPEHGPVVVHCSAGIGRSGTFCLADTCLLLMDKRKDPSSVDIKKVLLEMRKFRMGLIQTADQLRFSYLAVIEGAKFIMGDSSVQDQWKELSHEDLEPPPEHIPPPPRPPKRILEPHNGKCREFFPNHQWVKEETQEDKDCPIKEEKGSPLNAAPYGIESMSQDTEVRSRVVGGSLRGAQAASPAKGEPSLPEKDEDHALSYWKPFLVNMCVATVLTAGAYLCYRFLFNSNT
# [2] = molecular target: Protein tyrosine phosphatase type IVA 3 (Homo sapiens) (UniProt O75365); assay: Binding affinity to purified recombinant PTP4A3 using streptaive HRP at 20 uM after 1 hr by Western blotting analysis
# Chain of Protein tyrosine phosphatase type IVA 3 (Homo sapiens) (O75365 whole entry): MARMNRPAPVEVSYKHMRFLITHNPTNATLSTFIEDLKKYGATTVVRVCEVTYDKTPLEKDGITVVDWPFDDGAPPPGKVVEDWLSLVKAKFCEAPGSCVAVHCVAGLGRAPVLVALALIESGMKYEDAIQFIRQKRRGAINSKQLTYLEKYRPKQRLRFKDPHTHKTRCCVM
# [3] = molecular target: T1, Tyrosine-protein phosphatase non-receptor type 1 (Homo sapiens); assay: Binding affinity to purified recombinant PTP1B using streptaive HRP at 200 uM after 1 hr by Western blotting analysis
# [4] = molecular target: Protein tyrosine phosphatase type IVA 3 (Homo sapiens) (UniProt O75365); assay: Binding affinity to purified recombinant PTP4A3 using streptaive HRP at 200 uM by Western blotting analysis
# [5] = system: T2, Tyrosine-protein phosphatase non-receptor type 1 (Homo sapiens), P18031 [C215S]; assay: Binding affinity to purified recombinant dPTP1B C215S mutant using streptaive HRP at 200 uM after 1 hr by Western blotting analysis
# T2 sequence (whole entry): T1 sequence (whole entry) with C215S
# [6] = system: Escherichia coli; assay: Binding affinity to PTP1B in Escherichia coli lysate at 0.8 mM after 1 hr by Western blotting analysis
# [7] = system: Escherichia coli; assay: Binding affinity to PTP4A3 in Escherichia coli lysate at 0.8 mM after 1 hr by Western blotting analysis in presence of alpha-bromobenzylphosphonate
# [8] = system: Jurkat; assay: Binding affinity to PTP1B in human Jurkat cell lysate at 0.8 mM after 1 hr by Western blotting analysis in presence of alpha-bromobenzylphosphonate; format: cell-free
structure (smiles),measurement,setting,value
NC(=O)[C@H](Cc1ccc(OP(=O)(O)O)c(C(F)F)c1)NC(=O)[C@H](CC(=O)O)NC(=O)Cc1ccc(C(F)(F)P(=O)(O)O)cc1,Activity,[1],Active
same,Activity,[2],inactive
same,Activity,[3],Active
same,Activity,[4],Active
same,Activity,[5],inactive
same,Activity,[6],Active
same,Activity,[7],Active
same,Activity,[8],Active
